The results in this text go back to patent publication US20040105849A1, “Treatment for SMA disease” (priority 2002, published 2004).

SMILES strings stand for the structures.

The subject of data set [1] is Patient A, Spinal Muscular Atrophy (SMA) Type I. The experiment in a line: Tolerability / adverse effects of the supplements in Patient A. The class given is in vivo, human. The source says:
It is understood that the amounts of the various ingredients of the method of the invention can be, as may be necessary, conveniently be adjusted up or down for body weigh and other variants of the disease. The mode of delivery may vary. […] Ingredients could also be injected into the gastric tube in solid, gel or semi-solid form. Other children may swallow ingredients in solid or liquid form (with pharmaceutically acceptable carriers, e.g., water).

Data set [2] concerns Infantile Seborrhoeic Dermatitis (cradle cap). Kind of data set: Treatment of Infantile Seborrhoeic Dermatitis (cradle cap) in Patient A. The class given is in vivo, human. Particulars: about 4,000 mcg at intervals of three days per week. From the text: Early Symptoms and Patient Diagnosis. The patient (“Patient A”), a person. They were normal at birth with no signs of muscular weakness. Within three months of their birth, they developed a skin condition. […] Infantile Seborrhoeic Dermatitis, also known as cradle cap, is a condition that occurs in infants and is caused by the drying of excess oils excreted from the infant's body. It is characterized by a yellowish-whitish crust on the infant's head. Following medical consultation, various topical creams and ointments were employed without success. The B vitamin biotin was then given at a dosage of about 4,000 mcg at intervals of three days per week. Current research attributes cradle cap to a deficiency of this vitamin. […] Gut bacteria located in the large intestine are responsible for the production this B vitamin and a deficiency of this nutrient under normal conditions is rare.

As to `O=c1c(O)c(-c2ccc(O)c(O)c2)oc2cc(O)cc(O)c12` [quercetin], in data set [1] (above 300 mg capsule, ½ capsule three days per week), the “adverse effect of too much quercetin” value was “depress Patient A's respiration”.
Regarding `O=C(O)CCCC[C@@H]1SC[C@@H]2NC(=O)N[C@@H]21` [biotin], the “course of cradle cap” value in data set [2] is on record as “resolved itself almost immediately”.
`C[C@@H]1O[C@@H](OC[C@H]2O[C@@H](Oc3c(-c4ccc(O)c(O)c4)oc4cc(O)cc(O)c4c3=O)[C@H](O)[C@@H](O)[C@@H]2O)[C@H](O)[C@H](O)[C@H]1O` [Rutin]: in data set [1] (dosages higher than approximately 3 mg every three days), the “adverse effects at higher dosages” value is “nausea, decrease gastrointestinal motility and drowsiness”. Besides, the “adverse effect of rutin along with pectin” value in data set [1] (rutin added to pectin) was “caused their lips to blister and peel”.
